Measured values published in ChEMBL document CHEMBL4725338, “Discovery of novel histone lysine methyltransferase G9a/GLP (EHMT2/1) inhibitors: Design, synthesis, and structure-activity relationships of 2,4-diamino-6-methylpyrimidines” (Bioorg Med Chem Lett, 2020).
Converted amounts (≈) assume the structure as drawn. The source made the active and inactive calls. The rule behind the calls is not given here.

Columns and labels:
[1] = target: T1, Histone-lysine N-methyltransferase EHMT1 (Homo sapiens, UniProt Q9H9B1); experiment: Inhibition of GLP (unknown origin)
T1 sequence (Q9H9B1 whole entry): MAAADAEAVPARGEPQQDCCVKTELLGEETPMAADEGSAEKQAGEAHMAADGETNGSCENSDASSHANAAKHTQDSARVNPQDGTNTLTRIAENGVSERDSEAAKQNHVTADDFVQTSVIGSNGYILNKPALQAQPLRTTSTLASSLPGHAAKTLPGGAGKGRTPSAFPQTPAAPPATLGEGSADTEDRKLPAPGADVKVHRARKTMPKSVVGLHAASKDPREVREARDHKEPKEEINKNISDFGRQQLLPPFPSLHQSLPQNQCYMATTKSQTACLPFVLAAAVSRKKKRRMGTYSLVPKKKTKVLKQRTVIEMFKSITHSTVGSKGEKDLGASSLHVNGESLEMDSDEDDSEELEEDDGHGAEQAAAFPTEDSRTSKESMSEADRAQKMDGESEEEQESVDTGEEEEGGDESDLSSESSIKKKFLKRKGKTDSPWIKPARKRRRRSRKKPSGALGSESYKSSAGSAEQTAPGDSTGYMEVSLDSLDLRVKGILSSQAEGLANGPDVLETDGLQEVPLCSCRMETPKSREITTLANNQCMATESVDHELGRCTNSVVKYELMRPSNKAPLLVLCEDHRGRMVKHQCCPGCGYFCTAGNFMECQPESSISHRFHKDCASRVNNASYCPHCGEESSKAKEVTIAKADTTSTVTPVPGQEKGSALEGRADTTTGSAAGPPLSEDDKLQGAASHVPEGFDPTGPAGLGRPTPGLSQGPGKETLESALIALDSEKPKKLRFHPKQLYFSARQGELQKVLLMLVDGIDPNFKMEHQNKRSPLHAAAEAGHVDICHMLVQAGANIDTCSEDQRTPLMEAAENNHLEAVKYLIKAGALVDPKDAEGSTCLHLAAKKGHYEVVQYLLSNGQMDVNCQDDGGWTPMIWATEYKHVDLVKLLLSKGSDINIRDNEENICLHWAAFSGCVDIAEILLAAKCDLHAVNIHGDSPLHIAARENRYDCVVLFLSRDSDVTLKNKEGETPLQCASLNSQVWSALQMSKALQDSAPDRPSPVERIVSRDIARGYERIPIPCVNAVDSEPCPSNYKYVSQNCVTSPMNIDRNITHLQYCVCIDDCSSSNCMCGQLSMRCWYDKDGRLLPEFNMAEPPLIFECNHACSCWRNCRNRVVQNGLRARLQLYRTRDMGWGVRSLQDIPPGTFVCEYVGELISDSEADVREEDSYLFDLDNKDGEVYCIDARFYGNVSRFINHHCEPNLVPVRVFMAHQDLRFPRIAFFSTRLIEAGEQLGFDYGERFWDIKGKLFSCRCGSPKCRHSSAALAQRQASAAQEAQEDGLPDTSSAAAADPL

[2] = target: T2, Histone-lysine N-methyltransferase EHMT2 (Homo sapiens, UniProt Q96KQ7); experiment: Inhibition G9a (unknown origin)
T2 sequence (Q96KQ7 whole entry): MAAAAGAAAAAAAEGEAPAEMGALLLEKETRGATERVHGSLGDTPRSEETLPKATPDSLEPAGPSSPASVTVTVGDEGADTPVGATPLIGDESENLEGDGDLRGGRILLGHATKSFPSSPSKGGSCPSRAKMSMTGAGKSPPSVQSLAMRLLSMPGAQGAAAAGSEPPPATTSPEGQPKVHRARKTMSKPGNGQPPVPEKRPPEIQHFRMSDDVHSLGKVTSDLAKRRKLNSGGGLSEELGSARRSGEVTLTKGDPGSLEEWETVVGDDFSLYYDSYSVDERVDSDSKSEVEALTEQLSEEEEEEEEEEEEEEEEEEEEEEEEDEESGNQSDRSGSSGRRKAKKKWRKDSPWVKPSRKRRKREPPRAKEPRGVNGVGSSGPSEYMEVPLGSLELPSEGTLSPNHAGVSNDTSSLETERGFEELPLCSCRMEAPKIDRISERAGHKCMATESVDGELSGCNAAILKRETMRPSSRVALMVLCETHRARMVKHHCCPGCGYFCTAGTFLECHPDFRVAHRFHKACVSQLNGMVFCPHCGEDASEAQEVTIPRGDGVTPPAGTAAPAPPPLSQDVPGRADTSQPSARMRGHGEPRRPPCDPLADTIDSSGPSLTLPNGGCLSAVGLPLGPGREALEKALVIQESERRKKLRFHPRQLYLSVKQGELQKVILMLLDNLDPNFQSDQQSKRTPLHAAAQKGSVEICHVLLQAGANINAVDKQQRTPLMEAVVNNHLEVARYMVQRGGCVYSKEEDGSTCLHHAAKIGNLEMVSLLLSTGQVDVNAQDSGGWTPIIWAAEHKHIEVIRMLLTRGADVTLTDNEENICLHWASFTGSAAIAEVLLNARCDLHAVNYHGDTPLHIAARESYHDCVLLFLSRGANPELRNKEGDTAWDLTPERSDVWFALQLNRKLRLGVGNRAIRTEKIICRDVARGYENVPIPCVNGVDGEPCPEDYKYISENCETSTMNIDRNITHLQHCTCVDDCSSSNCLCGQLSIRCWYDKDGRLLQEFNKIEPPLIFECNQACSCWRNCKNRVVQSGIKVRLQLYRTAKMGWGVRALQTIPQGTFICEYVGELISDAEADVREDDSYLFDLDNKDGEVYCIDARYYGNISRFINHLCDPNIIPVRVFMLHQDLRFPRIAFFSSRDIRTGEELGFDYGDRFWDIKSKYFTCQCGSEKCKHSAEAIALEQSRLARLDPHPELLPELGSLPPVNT

[3] = system: CD34-positive (myeloid/lymphoid) cell; experiment: Induction of fetal globin in human CD34+ cells assessed as switching of mRAN expression from adult beta-globin to fetal type gamma globin at 0.3 to 1 uM by qRT-PCR analysis; format: functional, cell-based
[4] = Volume of distribution at steady state in mouse at 1 mg/kg, iv; format: ADME, organism-based; settings: in vivo, read-out: Vdss
[5] = AUC (0 to infinity) in mouse at 10 mg/kg, po; format: ADME, organism-based; design: time infinity, route oral, dose 10 mg/kg; settings: in vivo
[6] = Lipophilicity, log D of compound; format: physicochemical; settings: octanol/water
[7] = Aqueous solubility of the compound in pH 6.8 JP2 fluid; format: physicochemical
[8] = Cmax in mouse at 10 mg/kg, po; format: ADME, organism-based; design: route oral, dose 10 mg/kg; settings: in vivo
[9] = Oral bioavailability in mouse at 10 mg/kg; format: ADME, organism-based; settings: in vivo
hERG (KCNH2) = hERG (KCNH2) (Homo sapiens, UniProt Q12809); experiment: Inhibition of human ERG at 10 uM relative to control
hERG (KCNH2), sequence (Q12809 whole entry): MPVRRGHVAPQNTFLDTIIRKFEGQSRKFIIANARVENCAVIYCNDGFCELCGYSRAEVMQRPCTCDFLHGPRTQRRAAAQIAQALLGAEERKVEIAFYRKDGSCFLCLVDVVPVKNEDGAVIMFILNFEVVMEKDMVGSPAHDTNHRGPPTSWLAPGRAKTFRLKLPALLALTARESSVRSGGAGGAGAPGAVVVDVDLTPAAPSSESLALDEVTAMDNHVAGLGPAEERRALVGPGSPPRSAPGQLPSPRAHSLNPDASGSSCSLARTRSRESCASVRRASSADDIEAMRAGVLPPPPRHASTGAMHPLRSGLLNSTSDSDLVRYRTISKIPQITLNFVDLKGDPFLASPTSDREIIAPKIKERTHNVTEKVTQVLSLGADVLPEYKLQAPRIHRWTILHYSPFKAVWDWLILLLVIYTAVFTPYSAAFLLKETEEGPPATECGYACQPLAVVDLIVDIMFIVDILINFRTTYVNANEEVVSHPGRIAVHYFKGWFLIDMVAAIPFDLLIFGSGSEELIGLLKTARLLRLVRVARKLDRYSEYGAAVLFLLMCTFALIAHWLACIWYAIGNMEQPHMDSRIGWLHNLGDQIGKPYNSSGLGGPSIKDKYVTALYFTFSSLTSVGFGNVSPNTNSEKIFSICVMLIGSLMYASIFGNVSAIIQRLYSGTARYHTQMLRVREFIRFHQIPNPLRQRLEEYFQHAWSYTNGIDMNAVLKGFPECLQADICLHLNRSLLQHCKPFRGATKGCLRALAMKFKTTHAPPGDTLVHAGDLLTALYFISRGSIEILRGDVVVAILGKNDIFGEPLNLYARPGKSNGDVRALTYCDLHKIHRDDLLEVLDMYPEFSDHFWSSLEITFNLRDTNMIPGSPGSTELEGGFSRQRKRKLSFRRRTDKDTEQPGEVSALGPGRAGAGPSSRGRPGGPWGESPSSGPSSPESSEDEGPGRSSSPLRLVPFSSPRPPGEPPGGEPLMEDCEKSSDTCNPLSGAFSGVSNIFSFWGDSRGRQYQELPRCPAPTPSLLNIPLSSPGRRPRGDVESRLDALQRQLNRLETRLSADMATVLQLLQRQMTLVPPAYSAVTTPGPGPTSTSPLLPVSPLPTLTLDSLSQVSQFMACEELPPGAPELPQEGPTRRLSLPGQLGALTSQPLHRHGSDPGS

[10] = Tmax in mouse at 10 mg/kg, po; format: ADME, organism-based; settings: in vivo
[11] = AUC (0 to infinity) in mouse at 1 mg/kg, iv; format: ADME, organism-based; design: time infinity, route intravenous, dose 1 mg/kg; settings: in vivo
[12] = Half-life in mouse at 1 mg/kg, iv; format: ADME, organism-based; settings: in vivo
CYP3A4 = CYP3A4 (Homo sapiens, UniProt P08684); experiment: Mechanism based inhibition of CYP3A4 in human liver microsome assessed as remaining percentage at 100 uM in presence of substrate ACN preincubated 30 mins followed by substrate addition relative to control; format: ADME; settings: liver microsomes, probe ACN (so in the source), read-out: Activity
CYP3A4, sequence (P08684 whole entry): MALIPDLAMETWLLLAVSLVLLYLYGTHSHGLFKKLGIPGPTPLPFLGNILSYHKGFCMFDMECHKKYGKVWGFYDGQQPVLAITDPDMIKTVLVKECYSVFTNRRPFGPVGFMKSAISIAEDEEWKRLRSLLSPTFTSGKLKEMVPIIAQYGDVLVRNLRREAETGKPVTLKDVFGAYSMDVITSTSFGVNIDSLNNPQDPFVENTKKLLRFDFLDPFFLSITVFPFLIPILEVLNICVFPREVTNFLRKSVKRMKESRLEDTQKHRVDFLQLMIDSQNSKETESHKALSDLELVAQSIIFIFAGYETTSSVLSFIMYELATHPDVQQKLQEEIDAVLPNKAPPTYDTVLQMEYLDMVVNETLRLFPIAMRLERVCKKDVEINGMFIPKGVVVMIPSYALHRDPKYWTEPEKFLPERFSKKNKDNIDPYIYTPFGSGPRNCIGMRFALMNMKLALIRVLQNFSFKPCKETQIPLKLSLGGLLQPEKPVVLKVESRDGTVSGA

[13] = Aqueous solubility of the compound in pH 1.2 JP1 fluid; format: physicochemical
[14] = Initial plasma concentration in mouse at 1 mg/kg, iv; format: ADME, organism-based
[15] = Apparent permeability in MDCK cells; format: ADME, cell-based, Canis lupus familiaris; settings: dog
[16] = Intrinsic clearance in mouse at 1 mg/kg, iv; format: ADME, organism-based; settings: in vivo
[17] = Metabolic stability in mouse liver microsomes assessed as compound remaining at 0.5 mg/mL incubated for 0.5 hrs; format: ADME, Microsome; settings: read-out: Stabilty
[18] = Metabolic stability in human liver microsomes assessed as compound remaining at 0.5 mg/mL incubated for 0.5 hrs; format: ADME, Microsome; settings: read-out: Stabilty
[19] = Metabolic stability in monkey liver microsomes assessed as compound remaining at 0.5 mg/mL incubated for 0.5 hrs; format: ADME, Macaca mulatta, Microsome; settings: rhesus monkey, read-out: Stabilty
[20] = system: CD34-positive (myeloid/lymphoid) cell; experiment: Inhibition of G9a methyltransferase activity in human CD34+ cells assessed as induction of fetal type gamma globin at 1 uM in presence of erythropoietin measured after 21 days by staining based method; format: functional; settings: time 21.0 day

CCN1CC=C(c2cc(Nc3nc(C)cc(NC)n3)ccc2OC)CCC1
IC50 [1]: 44.1 nM | IC50 [2]: 10.5 nM

CNc1cc(C)nc(Nc2ccc(C)c(C3=CCNCCC3)c2)n1
IC50 [1]: 109 nM | IC50 [2]: 14.2 nM

COc1cc2c(cc1OCCCN1CCCC1)N=C(N)C21CCC1
Activity [3]: Active

CNc1cc(C)nc(Nc2ccc(OC)c(C3=CCN(C)CCC3)c2)n1
Vd [4]: 14.9 L/kg | AUC(0-inf) [5]: 3.14 µM·h | IC50 [1]: 74.1 nM | logD [6]: 1.3 | solubility [7]: 360 µg/mL (≈ 1020 µM) | Cmax [8]: 210 nM | bioavailability [9]: 26% | inhibition at 10 µM (hERG (KCNH2)): 17% | Tmax [10]: 0.63 h | AUC(0-inf) [11]: 1.2 µM·h | half-life [12]: 5.6 h | activity at 30 min, 100 µM (CYP3A4): 87.3% | solubility [13]: 710 µg/mL (≈ 2010 µM) | C0 [14]: 220 nM | Papp [15]: 8.4 ×10⁻⁶ cm/s | CL [16]: 38.7 mL/min/kg | remaining at 0.5 h [17]: 23% | remaining at 0.5 h [18]: 76% | remaining at 0.5 h [19]: 2%

CNc1cc(C)nc(Nc2ccc(OC)c(C3=CCCNCC3)c2)n1
IC50 [1]: 479 nM | IC50 [2]: 83.3 nM

CNc1cc(C)nc(Nc2ccc(OC)c(C3=CCN(C)CC3)c2)n1
IC50 [1]: 277 nM | IC50 [2]: 92.9 nM

CNc1cc(C)nc(Nc2ccc(OC)c(N3CCN(C)CC3)c2)n1
IC50 [2]: > 5000 nM

CNc1cc(C)nc(Nc2ccc(OC)c(C3=CCCN(C)C3)c2)n1
IC50 [1]: 864 nM | IC50 [2]: 451 nM

CNc1cc(C)nc(Nc2ccc(OC)c(C3CCCNCC3)c2)n1 (racemic)
IC50 [1]: 342 nM | IC50 [2]: 28.2 nM

CNc1cc(C)nc(Nc2ccc(OC)c(C3=CCNCC3)c2)n1
IC50 [1]: 1160 nM | IC50 [2]: 225 nM

COc1cc2c(NC3CCN(C(C)C)CC3)nc(C3CCCCC3)nc2cc1OCCCN1CCCC1
Activity [20]: Active

CNc1cc(C)nc(Nc2ccc(OC)c(C3=CCN(CCO)CCC3)c2)n1
IC50 [1]: 1590 nM | IC50 [2]: 213 nM

CNc1cc(C)nc(Nc2ccc(Cl)c(C3=CCNCCC3)c2)n1
IC50 [1]: 27.1 nM | IC50 [2]: 6.32 nM

CNc1cc(C)nc(Nc2ccc(OC)c(C3CCN(C)CC3)c2)n1
IC50 [2]: 588 nM

CNc1cc(C)nc(Nc2ccc(OC)c(C3=CCN(C4CCC4)CCC3)c2)n1
IC50 [1]: 1070 nM | IC50 [2]: 145 nM

CNc1cc(C)nc(Nc2ccc(OC)c(C3=CCN(C)C3)c2)n1
IC50 [1]: 2770 nM | IC50 [2]: 1490 nM

CNc1cc(C)nc(Nc2ccc(C#N)c(C3=CCNCCC3)c2)n1
IC50 [1]: 43.2 nM | IC50 [2]: 15.2 nM

CNc1cc(C)nc(Nc2ccc(OC(F)(F)F)c(C3=CCNCCC3)c2)n1
IC50 [1]: 3800 nM | IC50 [2]: 853 nM

CNc1cc(C)nc(Nc2ccc(OC(F)F)c(C3=CCNCCC3)c2)n1
IC50 [1]: 14.7 nM | IC50 [2]: 3.25 nM
